# Results reported in patent publication US8030543B2, “Efficient transformation method for sunflower and oil seeds based on positive selection” (Avesthagen Limited, priority 2006, dated 2011).
# Columns and labels:
# [1] = tested on: Helianthus annuus CMS234B split embryonic axis (SEA) explants; assay: Positive selection and regeneration of sunflower SEA explants transformed with pCAMBIA-XI on media containing Xylose; format: cell-based; details: for No of PCR +ve explants / No. of explants Regenerating into shootlets / No. of explants surviving I selection (15 days) / No. of explants surviving I selection (21 days) / No. of explants surviving II selection (15 days) / PCR +ve Regenerants: 100 explants infected, pCAMBIA-XI
# Method: The seeds were sterilized and the split embryonic axis isolated as described earlier. […] Agrobacterium cells from the glycerol stock were grown overnight in Luria-Bertani (LB) medium containing Rifampicin (10 μg/ml), Gentamycin (10 μg/ml) and Kanamycin (50 μg/ml) and grown exponentially for a period of 4-6 hrs to reach O.D600=1.0. The cells were centrifuged at 6000 rpm for 5 min at 4° C. and then washed and resuspended in MS liquid to reach an O.D600 of 1.0. The excised explants were immediately transferred to a vacuum infiltration flask containing 25 ml of the resuspended culture. Vacuum at 200 atm pressure for 15 min was applied and quickly released. The culture was then drained off completely and explants collected on a blotting paper. […] After two days of co-cultivation, the explants were washed thoroughly with Murashige and Skoog (1972) liquid medium containing Cefotaxime 250 mg/l. […] After the selection period the shoots were subcultured onto Elongation medium containing ½ Strength MS medium. […] The explants surviving first selection were transferred for a second selection to the same medium for 21 days. Explants were subsequently transferred to their respective elongation media. Healthy shootlets were transferred to their respective rooting media.
# [2] = tested on: sunflower CMS234B SEA explants; assay: Screening for capability to utilize xylose as carbon source (untransformed SEA explants); format: cell-based, Helianthus annuus; details: MS medium with 0.5 mg/l BAP, 3% Xylose as carbon source
# Method: In order to determine if sunflower is capable of using xylose as the carbon source, explants were cultured on regeneration media containing sucrose and xylose respectively.
structure (smiles),measurement,setting,value
"O=C[C@H](O)[C@@H](O)[C@H](O)CO [Xylose, D-Xylose]",No of PCR +ve explants,[1]; Xylose Conc. 15 (mg/l),28
same,No. of explants Regenerating into shootlets,[1]; Xylose Conc. 15 (mg/l),20
same,No. of explants surviving I selection (15 days),[1]; Xylose Conc. 15 (mg/l),80
same,No. of explants surviving I selection (21 days),[1]; Xylose Conc. 15 (mg/l),70
same,No. of explants surviving II selection (15 days),[1]; Xylose Conc. 15 (mg/l),60
same,PCR +ve Regenerants,[1]; Xylose Conc. 15 (mg/l),10
same,No of PCR +ve explants,[1]; Xylose Conc. 20 (mg/l),30
same,No. of explants Regenerating into shootlets,[1]; Xylose Conc. 20 (mg/l),12
same,No. of explants surviving I selection (15 days),[1]; Xylose Conc. 20 (mg/l),72
same,No. of explants surviving I selection (21 days),[1]; Xylose Conc. 20 (mg/l),65
same,No. of explants surviving II selection (15 days),[1]; Xylose Conc. 20 (mg/l),57
same,PCR +ve Regenerants,[1]; Xylose Conc. 20 (mg/l),7
same,No of PCR +ve explants,[1]; Xylose Conc. 25 (mg/l),28
same,No. of explants Regenerating into shootlets,[1]; Xylose Conc. 25 (mg/l),7
same,No. of explants surviving I selection (15 days),[1]; Xylose Conc. 25 (mg/l),65
same,No. of explants surviving I selection (21 days),[1]; Xylose Conc. 25 (mg/l),55
same,No. of explants surviving II selection (15 days),[1]; Xylose Conc. 25 (mg/l),40
same,PCR +ve Regenerants,[1]; Xylose Conc. 25 (mg/l),6
same,No of PCR +ve explants,[1]; Xylose Conc. 30 (mg/l),18
same,No. of explants Regenerating into shootlets,[1]; Xylose Conc. 30 (mg/l),5
same,No. of explants surviving I selection (15 days),[1]; Xylose Conc. 30 (mg/l),50
same,No. of explants surviving I selection (21 days),[1]; Xylose Conc. 30 (mg/l),38
same,No. of explants surviving II selection (15 days),[1]; Xylose Conc. 30 (mg/l),20
same,PCR +ve Regenerants,[1]; Xylose Conc. 30 (mg/l),5
same,green tissue of plantlets,"[1]; plantlets grown on D-Xylose medium, compared to plantlets grown on Hygromycin",90%
same,healthy shoots per explants,[1]; positive selection on Xylose,2-3
same,time within which explants brown and die,[2],2-3 weeks
